Measured values from patent US9457019B2, “Methods for inhibiting tie-2 kinase useful in the treatment of cancer” (Deciphera Pharmaceuticals, LLC, priority 2013, dated 2016).

Columns and labels:
TIE2 = target: T1, TIE2 (Homo sapiens, UniProt Q02763); experiment: TIE2-transfected CHO K1 phospho-TIE2 Western blot composition washout assay; type: cell-based; conditions: incubated 2 hours at 0.1 μM-1 μM prior to being washed out
T1 construct: V5; expressed in transfected cells; host or cells: CHO-K1 (ATCC CCL-61), transient transfection with Lipofectamine LTX
Experimental: CHO-K1 cells (catalog #CCL-61) were obtained from the American Type Culture Collection (ATCC, Manassas, Va.). Briefly, cells were grown in F12K medium supplemented with 10% characterized fetal bovine serum (Invitrogen, Carlsbad, Calif.), 100 units/mL penicillin G, 100 μg/ml streptomycin, and 0.29 mg/mL L-glutamine (Invitrogen, Carlsbad, Calif.) at 37 degrees Celsius, 5% CO2, and 95% humidity. Cells were allowed to expand until reaching 70-95% confluence at which point they were subcultured or harvested for assay use.
TIE2-Transfected CHO K1 Phospho-TIE2 Western Blot Composition Washout Assay
CHO K1 cells (1×10^5 cells/well) were added to a 24-well tissue-culture treated plate in 1 mL of RPMI1640 medium supplemented with 10% characterized fetal bovine serum and 1× non-essential amino acids (Invitrogen, Carlsbad, Calif.). Cells were then incubated overnight at 37 degrees Celsius, 5% CO2, and 95% humidity. Medium was aspirated, and 0.5 mL of medium was added to each well. […] Fluorescence was detected using a Storm 840 phosphorimager (GE Healthcare, Piscataway, N.J.) in fluorescence mode. […] The 160 kDa phospho-TIE2 and total TIE2 bands were quantified using ImageQuant software (GE Healthcare, Piscataway, N.J.). […]

[1] = tested on: HMVEC capillary tube formation; experiment: HMVEC capillary tube formation assay; type: cell-based; conditions: Homo sapiens, ANG1-stimulated, 18 hours, read-out: IC50 value for inhibition of ANG1-stimulated HMVEC capillary tube formation
Experimental: HMVEC (Human microvascular endothelial cells; Catalog #PCS-110-010) cells were obtained from the American Type Culture Collection (ATCC, Manassas, Va.). Briefly, cells were grown in EGM-2 MV (Lonza, Walkersville, Md.) at 37 degrees Celsius, 5% CO2, and 95% humidity. Cells were allowed to expand until reaching 90-95% saturation at which point they were subcultured or harvested for assay use.
HMVEC Capillary Tube Formation Assay
HMVEC cells (1.5×10^4 cells/well) mixed with test composition or DMSO control and the appropriate growth factor (ANG1 or ANG2) or control were added to a 96-well tissue-culture treated plate coated with growth-factor reduced Matrigel in 0.1 mL of EBM-2 basal medium (Lonza, Walkersville, Md.). Cells were then incubated for 18 hours at 37 degrees Celsius, 5% CO2, and 95% humidity. Media was then gently aspirated and wells were gently washed with 0.1 mL EBM-2 basal medium. Media was again aspirated and 1 μM Calcein AM solution (Invitrogen, Carlsbad, Calif.) in basal medium was added to each well to fluorescently label live cells. Cells were then incubated for 30 minutes at 37 degrees Celsius, 5% CO2, and 95% humidity. Media was aspirated and wells were gently washed with phosphate-buffered saline twice. […] Data was analyzed using Prism software (GraphPad Software, San Diego, Calif.) to calculate IC50 values.

[2] = tested on: PyMT syngeneic breast cancer implant mouse model; experiment: PyMT syngeneic breast cancer model primary tumor growth; type: in vivo; conditions: Compound 1 oral twice daily, paclitaxel IV every five days, 21 days
Experimental: PyMT Syngeneic Breast Cancer Model Primary Tumor Growth
Briefly, 1×10^6 cells (dissociated from PyMT tumor fragments) in 0.1 mL total volume were implanted into the fourth mammary fat pad on the left side of female mice (FVB/NJ, JAXWEST:RB05 mice from Jackson Labs). A total of 10 mice were implanted in each group. Molecular Imaging, Inc.'s Animal Care and Use Committee approved all the experimental protocols and conducted experiments in compliance with all the laws, regulations and guidelines of the National Institutes of Health (NIH). […] Animals were dosed for 21 days. Body weights and tumor measurements were recorded three times weekly. Tumor burden (mg) was estimated from caliper measurements by the formula for the volume of a prolate ellipsoid assuming unit density as: Tumor burden (mg)=(L×W^2)/2, where L and W are the respective orthogonal tumor length and width measurements (mm).

[3] = tested on: PyMT syngeneic breast cancer implant mouse model; experiment: PyMT syngeneic breast cancer model primary tumor macrophage accumulation (F4/80 staining); type: in vivo; conditions: Compound 1 oral twice daily, paclitaxel IV every five days, 21 days
Experimental: PyMT Syngeneic Breast Cancer Model Primary Tumor Macrophage Accumulation
(§4) Briefly, 1×10^6 cells (dissociated from PyMT tumor fragments) in 0.1 mL total volume were implanted into the fourth mammary fat pad on the left side of female mice (FVB/NJ, JAXWEST:RB05 mice from Jackson Labs). A total of 10 mice were implanted in each group. […] Animals were dosed for 21 days. Body weights and tumor measurements were recorded three times weekly.
At the end of study, tumors were excised and placed in formalin. Formalin-fixed tumor samples were then placed in paraffin blocks. Formalin fixed-paraffin embedded tissue slides were deparaffinized with xylene and hydrated to distilled water through a graduated series of alcohol rinses. Antigenic retrieval was performed using Dako's PT Link Module with a Tris/EDTA buffer target retrieval solution at 95° C. for 20 minutes. Once the slides cooled down, they were loaded onto a Dako AutostainerPlusLink for immunohistochemical staining at room temperature with F4/80 and CD31 antibodies, to stain for macrophages and endothelial cells, respectively. Endogenous peroxidase and alkaline phosphatase activity in the tissues was quenched with a Dual Endogenous Enzyme Block solution (Dako, S2003) for 5 minutes. […] Slides were scored for F4/80 staining using a scale of 0, no visible staining; 1, weak staining; 2, moderate staining; 3 strong staining.

[4] = tested on: PyMT syngeneic breast cancer implant mouse model; experiment: PyMT syngeneic breast cancer model primary tumor TIE2 cell accumulation (TIE2 staining); type: in vivo; conditions: Compound 1 oral twice daily, paclitaxel IV every five days, 21 days
Experimental: as §4
At the end of study, tumors were excised and placed in formalin. Formalin-fixed tumor samples were then placed in paraffin blocks. The experimental formalin fixed-paraffin embedded tissue slides were deparaffinized with xylene and hydrated to distilled water through a graduated series of alcohol rinses. Antigenic retrieval was performed using Dako's PT Link Module with a Citrate pH 6 buffer target retrieval solution at 95° C. for 20 minutes. Once the slides cooled down, they were loaded onto a Dako AutostainerPlusLink for immunohistochemical staining at room temperature with both TIE2 and CD31 antibodies. Endogenous peroxidase and alkaline phosphatase activity in the tissues was quenched with a Dual Endogenous Enzyme Block solution (Dako, S2003) for 5 minutes. Non-specific protein binding was blocked with serum free Protein Block (Dako, X0909) for 5 minutes. […] Slides were scored for TIE2 staining using a scale of 0, no visible staining; 1, weak staining; 2, moderate staining; 3 strong staining.

[5] = tested on: PyMT syngeneic breast cancer implant mouse model; experiment: PyMT syngeneic breast cancer model lung metastasis evaluation, Compound 1 dosed intermittently with eribulin; type: in vivo; conditions: Compound 1 oral twice weekly, eribulin IV three times weekly, 12 days
Experimental: (§1) PyMT Syngeneic Breast Cancer Model Lung Metastasis Evaluation
(§2) Briefly, 1×10^6 cells (dissociated from PyMT tumor fragments and stored frozen in cell-freezing medium) in 0.1 mL total volume were implanted into the fourth mammary fat pad on the left side of female mice (FVB/NJ, JAXWEST:RB05 mice from Jackson Labs). A total of three mice were implanted in each group. Molecular Imaging, Inc.'s Animal Care and Use Committee approved all the experimental protocols and conducted experiments in compliance with all the laws, regulations and guidelines of the National Institutes of Health (NIH). […] Animals were dosed for 12 days. Body weights and tumor measurements were recorded three times weekly.
(§3) At the end of study, lung tissues were excised and placed in formalin. Formalin-fixed lung samples were then placed in paraffin blocks. Each lung block had three slides with two levels per slide cut and stained with Hematoxylin and Eosin. Metastatic lung nodules were counted via microscopy.

[6] = tested on: PyMT syngeneic breast cancer implant mouse model; experiment: PyMT syngeneic breast cancer model survival evaluation; type: in vivo; conditions: Compound 1 oral once or twice weekly, eribulin at 0.1 mg/kg IV three times weekly; tumors resected three days after treatment began
Experimental: PyMT Syngeneic Breast Cancer Model Survival Evaluation
Briefly, 1×10^6 cells (dissociated from PyMT tumor fragments and stored frozen in cell-freezing medium) in 0.1 mL total volume were implanted into the fourth mammary fat pad on the left side of female mice (FVB/NJ, JAXWEST:RB05 mice from Jackson Labs). A total of ten mice were implanted in each group. Molecular Imaging, Inc.'s Animal Care and Use Committee approved all the experimental protocols and conducted experiments in compliance with all the laws, regulations and guidelines of the National Institutes of Health (NIH). […] Tumors were then resected three days after treatment began. Animals were then dosed for the duration of the survival experiment. Body weights and tumor measurements were recorded three times weekly.

[7] = tested on: PyMT syngeneic breast cancer implant mouse model; experiment: PyMT syngeneic breast cancer model lung metastasis evaluation, Compound 1 dosed intermittently with paclitaxel; type: in vivo; conditions: Compound 1 oral twice weekly, paclitaxel IV every five days, 12 days
Experimental: as §1, §2, §3

T1 sequence (Q02763 23-1124): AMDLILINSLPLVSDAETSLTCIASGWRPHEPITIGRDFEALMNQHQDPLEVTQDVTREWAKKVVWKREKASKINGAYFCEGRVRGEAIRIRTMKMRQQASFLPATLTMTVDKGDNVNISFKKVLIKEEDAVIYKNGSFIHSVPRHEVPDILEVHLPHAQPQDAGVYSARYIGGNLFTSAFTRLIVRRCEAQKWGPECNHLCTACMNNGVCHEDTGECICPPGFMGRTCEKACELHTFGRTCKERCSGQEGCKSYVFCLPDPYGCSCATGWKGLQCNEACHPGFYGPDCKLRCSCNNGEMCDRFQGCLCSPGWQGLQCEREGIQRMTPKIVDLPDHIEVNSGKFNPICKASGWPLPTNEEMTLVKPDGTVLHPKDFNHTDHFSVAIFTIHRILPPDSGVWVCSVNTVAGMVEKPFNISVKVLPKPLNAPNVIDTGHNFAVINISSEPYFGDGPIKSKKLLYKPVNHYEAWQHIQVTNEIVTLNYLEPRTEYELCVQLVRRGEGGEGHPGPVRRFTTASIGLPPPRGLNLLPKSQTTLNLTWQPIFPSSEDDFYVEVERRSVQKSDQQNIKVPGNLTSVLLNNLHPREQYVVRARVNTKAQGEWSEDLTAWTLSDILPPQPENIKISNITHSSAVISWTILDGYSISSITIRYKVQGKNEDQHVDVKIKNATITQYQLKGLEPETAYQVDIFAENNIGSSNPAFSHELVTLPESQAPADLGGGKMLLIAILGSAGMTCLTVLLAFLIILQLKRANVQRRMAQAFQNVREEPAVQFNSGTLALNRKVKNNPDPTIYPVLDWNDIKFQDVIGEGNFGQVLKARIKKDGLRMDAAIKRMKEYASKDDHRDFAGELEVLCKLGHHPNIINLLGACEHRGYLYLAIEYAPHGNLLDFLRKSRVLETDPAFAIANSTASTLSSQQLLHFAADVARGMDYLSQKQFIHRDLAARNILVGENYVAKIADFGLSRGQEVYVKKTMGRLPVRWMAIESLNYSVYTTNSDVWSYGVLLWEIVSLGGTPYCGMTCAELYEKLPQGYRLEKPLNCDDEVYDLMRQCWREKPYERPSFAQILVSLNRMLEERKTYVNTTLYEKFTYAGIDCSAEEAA

| Compound | duration of >50% inhibition of phospho-TIE2 levels after washout (TIE2) [h] | inhibition of phospho-TIE2 levels after washout (TIE2; maintained for >24 hours) [%] | IC50 [1] [nM] | primary tumor growth (tumor burden), FIG. 1 [2] | macrophage accumulation at the primary tumor (F4/80 staining), FIG. 2 [3] | TIE2-expressing cell accumulation at the primary tumor (TIE2 staining), FIG. 3 [4] | lung metastasis (metastatic lung nodules), FIG. 6 [5] | survival, FIG. 7 [6] | lung metastasis (metastatic lung nodules), FIG. 5 [7] |
| --- | --- | --- | --- | --- | --- | --- | --- | --- | --- |
| CNC(=O)c1cc(Oc2ccc(NC(=O)Nc3cc(C(C)(C)C)nn3-c3ccc4ncccc4c3)c(F)c2)ccn1.Cc1ccc(S(=O)(=O)O)cc1 [Compound 1, 1-(3-tert-butyl-1-(quinolin-6-yl)-1H-pyrazol-5-yl)-3-(2-fluoro-4-(2-(methylcarbamoyl)pyridin-4-yloxy)phenyl)urea para-toluene sulfonic acid salt] | > 24 | > 50 | 6.9 | tumor growth inhibition | decrease in macrophage accumulation | decrease in TIE2-expressing cell accumulation |  |  |  |
| C=C1C[C@@H]2CC[C@@]34C[C@H]5O[C@H]6[C@@H](O3)[C@H]3O[C@H](CC[C@@H]3O[C@H]6[C@H]5O4)CC(=O)C[C@@H]3[C@@H](OC)[C@@H](C[C@H](O)CN)O[C@H]3C[C@H]3O[C@@H](CC[C@@H]1O2)C[C@@H](C)C3=C [eribulin] |  |  |  |  |  |  | decrease (or increase at low dose) in lung metastasis | no increase in survival |  |
| CC(=O)O[C@H]1C(=O)[C@@]2(C)[C@H]([C@H](OC(=O)c3ccccc3)[C@]3(O)C[C@H](OC(=O)[C@H](O)[C@@H](NC(=O)c4ccccc4)c4ccccc4)C(C)=C1C3(C)C)[C@]1(OC(C)=O)CO[C@@H]1C[C@@H]2O [paclitaxel, reference compound] |  |  |  | tumor growth inhibition | did not decrease macrophage accumulation | did not decrease TIE2-expressing cell accumulation |  |  | decrease in lung metastasis |
